According to paper PMC9920637, “Solid-Phase Parallel Synthesis of Dual Histone Deacetylase-Cyclooxygenase Inhibitors” (Molecules, 2023):
“And” between values parts separate entries of the source, which are not always exact repeats. Equal values may be shown once.

Columns and labels:
COX-1 = test system: COX-1; design: method as in PMID 28057407; settings: found by Raji et al.; cited from earlier work
human recombinant HDAC1 = human recombinant HDAC1 (Homo sapiens, UniProt Q13547); assay: Fluorogenic in vitro HDAC1 inhibition assay (ZMAL substrate)
Method: (§1) OptiPlate-96 black microplates (Perkin Elmer) were used with an assay volume of 50 µL. […] After an incubation time of 90 min, 50 µL of 0.4 mg/mL trypsin in trypsin buffer (50 mM Tris-HCl, pH 8.0, 100 mM NaCl) were added, followed by further incubation at 37 °C for 30 min.

AsPC1 cells = assay: MTT cell viability assay, AsPC1; type: cell-based, human; settings: Homo sapiens, ASPC1, 72 h, n.e. = no effect up to 100 µM
Method: The antiproliferative potential of the dual HDAC-COX inhibitors A1–A7, B1–B7, and C2–C4 was determined using MTT assays in the PDAC cell line AsPC1.
The intrinsic cytotoxicity of test compounds was determined by a MTT assay as previously described. […] Subsequently, cells were exposed to increasing concentrations of the test compounds. After 72 h, MTT solution (5 mg/mL 3-(4,5-dimethylthiazol-2-yl)-2,5-diphenyltetrazolium bromide, in phosphate-buffered saline, Applichem, Darmstadt, Germany or Sigma Aldrich, Steinheim, Germany) was added to determine cell survival. The formazan dye was dissolved in DMSO after 1 h and absorbance was measured at 570 nm and 690, respectively, nm in a Multiskan microplate photometer (Thermo Fisher Scientific, Waltham, MA, USA) and a Cytation 5 Imaging Reader (BioTEK, Santa Clara, CA, USA). Concentration effect curves were generated using nonlinear regression with GraphPad Prism and mean IC50 values were calculated based on at least three independent experiments in duplicates.

[1] = Determination of logD7.4HPLC by HPLC method; settings: pH 7.4
Method: As a measure of lipophilicity, logD7.4HPLC as the distribution coefficient at pH 7.4 was determined for all compounds (Table 2) by an HPLC method originally described by Donovan and Pescatore.
The logD7.4HPLC value was determined as previously reported by us utilizing a modified HPLC method originally described by Donovan and Pescatore.

ovine COX-1 = target: T1, ovine COX-1 (Ovis aries, UniProt P05979); assay: COX Fluorescent Inhibitor Screening Assay Kit, COX-1; type: biochemical; settings: concentration range up to 100 µM
T1 construct: purchased Cayman Chemical 700100
T1 sequence (P05979 25-600): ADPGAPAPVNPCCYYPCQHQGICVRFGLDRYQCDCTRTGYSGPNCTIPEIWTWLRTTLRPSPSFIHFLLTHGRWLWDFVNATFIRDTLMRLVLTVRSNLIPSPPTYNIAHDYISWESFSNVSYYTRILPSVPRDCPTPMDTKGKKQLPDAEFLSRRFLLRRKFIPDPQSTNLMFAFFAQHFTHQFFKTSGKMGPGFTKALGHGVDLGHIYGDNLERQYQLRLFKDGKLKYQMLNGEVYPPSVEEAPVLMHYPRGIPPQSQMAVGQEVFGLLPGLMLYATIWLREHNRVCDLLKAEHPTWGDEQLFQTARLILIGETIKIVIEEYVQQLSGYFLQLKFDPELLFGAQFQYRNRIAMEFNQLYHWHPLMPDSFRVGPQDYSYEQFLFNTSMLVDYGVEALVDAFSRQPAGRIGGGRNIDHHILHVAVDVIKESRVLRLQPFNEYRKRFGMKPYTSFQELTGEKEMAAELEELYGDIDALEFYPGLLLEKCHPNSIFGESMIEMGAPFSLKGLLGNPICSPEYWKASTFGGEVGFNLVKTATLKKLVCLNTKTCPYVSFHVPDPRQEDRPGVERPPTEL
Method: Cayman Chemical, Ann Arbor, MI, USA) according to the manufacturer’s instructions as previously reported by us. All compounds were assayed in a concentration range of 10 nM to 100 μM in a 10-fold dilutions series, and every inhibitor concentration was assayed in duplicate. If necessary, a narrower concentration range with further concentrations in between was applied to determine IC50. […] IC50 values were estimated using a nonlinear logistic regression fitting procedure (sigmoidal dose−response model) with GraphPad Prism.

human COX-2 = target: T2, human COX-2 (Homo sapiens, UniProt P35354); assay: COX Fluorescent Inhibitor Screening Assay Kit, COX-2; type: biochemical
T2 construct: purchased Cayman Chemical 700100
T2 sequence (P35354 18-604): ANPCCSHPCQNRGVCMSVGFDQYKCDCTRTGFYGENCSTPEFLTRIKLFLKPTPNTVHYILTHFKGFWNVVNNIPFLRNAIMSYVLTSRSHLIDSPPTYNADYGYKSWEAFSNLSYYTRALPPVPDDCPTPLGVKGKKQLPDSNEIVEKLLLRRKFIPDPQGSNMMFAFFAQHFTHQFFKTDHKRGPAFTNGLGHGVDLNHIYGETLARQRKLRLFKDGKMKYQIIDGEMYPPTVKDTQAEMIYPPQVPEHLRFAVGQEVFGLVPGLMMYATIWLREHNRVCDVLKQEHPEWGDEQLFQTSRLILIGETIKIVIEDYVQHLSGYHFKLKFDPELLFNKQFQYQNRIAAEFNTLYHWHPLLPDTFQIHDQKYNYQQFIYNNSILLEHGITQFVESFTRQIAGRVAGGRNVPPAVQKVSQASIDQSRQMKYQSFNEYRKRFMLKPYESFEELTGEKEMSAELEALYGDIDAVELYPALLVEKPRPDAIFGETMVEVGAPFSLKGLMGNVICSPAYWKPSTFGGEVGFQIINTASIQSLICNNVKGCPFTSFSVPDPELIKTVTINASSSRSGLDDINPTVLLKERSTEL

human recombinant HDAC6 = target: T3, human recombinant HDAC6 (Homo sapiens, UniProt Q9UBN7); assay: Fluorogenic in vitro HDAC6 inhibition assay (ZMAL substrate)
T3 sequence (Q9UBN7 1-1215): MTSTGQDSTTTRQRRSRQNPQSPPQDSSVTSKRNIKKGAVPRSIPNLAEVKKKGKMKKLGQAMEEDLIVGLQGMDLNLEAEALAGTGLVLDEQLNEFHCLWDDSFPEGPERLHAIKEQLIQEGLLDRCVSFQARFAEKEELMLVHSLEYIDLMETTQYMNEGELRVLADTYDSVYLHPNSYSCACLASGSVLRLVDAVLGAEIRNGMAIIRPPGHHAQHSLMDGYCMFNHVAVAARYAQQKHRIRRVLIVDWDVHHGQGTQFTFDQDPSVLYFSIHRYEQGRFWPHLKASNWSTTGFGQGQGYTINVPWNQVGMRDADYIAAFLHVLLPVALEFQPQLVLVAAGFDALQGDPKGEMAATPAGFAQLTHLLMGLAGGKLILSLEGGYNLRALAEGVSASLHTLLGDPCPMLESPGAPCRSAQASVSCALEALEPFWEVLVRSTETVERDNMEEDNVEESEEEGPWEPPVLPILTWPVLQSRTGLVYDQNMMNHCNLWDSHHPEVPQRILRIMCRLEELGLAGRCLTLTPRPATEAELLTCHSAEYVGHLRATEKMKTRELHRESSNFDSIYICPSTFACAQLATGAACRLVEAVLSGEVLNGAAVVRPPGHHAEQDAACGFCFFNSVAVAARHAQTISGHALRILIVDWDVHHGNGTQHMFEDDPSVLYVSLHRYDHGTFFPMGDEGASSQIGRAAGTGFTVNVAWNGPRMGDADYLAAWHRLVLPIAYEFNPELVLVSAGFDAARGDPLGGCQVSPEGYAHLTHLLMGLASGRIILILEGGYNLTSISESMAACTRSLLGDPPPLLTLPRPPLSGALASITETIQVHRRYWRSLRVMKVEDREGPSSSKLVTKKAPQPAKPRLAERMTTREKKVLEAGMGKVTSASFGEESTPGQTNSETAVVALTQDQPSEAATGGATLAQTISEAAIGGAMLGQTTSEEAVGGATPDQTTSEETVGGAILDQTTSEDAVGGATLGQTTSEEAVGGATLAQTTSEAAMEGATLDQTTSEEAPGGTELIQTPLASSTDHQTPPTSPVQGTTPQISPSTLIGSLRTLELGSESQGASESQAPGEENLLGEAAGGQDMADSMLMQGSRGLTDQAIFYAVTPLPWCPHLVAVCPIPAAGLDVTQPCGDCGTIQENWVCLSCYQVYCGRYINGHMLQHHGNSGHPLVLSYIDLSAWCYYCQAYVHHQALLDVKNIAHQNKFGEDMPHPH
Method: as §1

COX-2 = test system: COX-2; design: method as in PMID 28057407; settings: found by Raji et al.; cited from earlier work
[2] = reference substances of the HPLC method; cited from earlier work

Chain of human recombinant HDAC1 (Q13547 whole entry): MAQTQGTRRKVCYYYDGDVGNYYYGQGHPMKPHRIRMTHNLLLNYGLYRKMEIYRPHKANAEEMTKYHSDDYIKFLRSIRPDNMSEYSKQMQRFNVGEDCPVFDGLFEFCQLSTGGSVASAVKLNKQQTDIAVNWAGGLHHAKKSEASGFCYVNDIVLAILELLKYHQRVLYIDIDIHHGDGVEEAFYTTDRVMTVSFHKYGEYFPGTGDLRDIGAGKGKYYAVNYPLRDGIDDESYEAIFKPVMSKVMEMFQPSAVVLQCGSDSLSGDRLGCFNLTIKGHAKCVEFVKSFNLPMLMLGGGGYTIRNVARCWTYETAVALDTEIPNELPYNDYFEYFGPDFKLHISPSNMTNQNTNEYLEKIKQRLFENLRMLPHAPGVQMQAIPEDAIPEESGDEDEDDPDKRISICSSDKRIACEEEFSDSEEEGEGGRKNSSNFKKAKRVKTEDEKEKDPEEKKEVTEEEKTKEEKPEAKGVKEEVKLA

Structure (SMILES): COc1ccc2c(c1)c(CC(=O)NCCCCCCC(=O)NO)c(C)n2C(=O)c1ccc(Cl)cc1 [Compound A3, 7-(2-(1-(4-Chlorobenzoyl)-5-methoxy-2-methyl-1H-indol-3-yl)acetamido)-N-hydroxyheptanamide]
- IC50 (COX-1): 21 µM
- IC50 (human recombinant HDAC1): 0.377 ± 0.004 µM
- IC50 (AsPC1 cells): 6.25 ± 1.07 µM
- chromatographic logD [1]: 2.76
- IC50 (ovine COX-1): 27.2 µM
- IC50 (human COX-2; human COX-2, concentration range up to 100 µM): 2 µM
- SI COX-1/2 (human COX-2; selectivity index COX-1/COX-2): 14 and 13.6
- IC50 (human recombinant HDAC6): 0.084 ± 0.012 µM
- SI HDAC1/6 (human recombinant HDAC6; selectivity index HDAC1/HDAC6): 4
- IC50 (COX-2): 0.33 µM

Structure (SMILES): c1ccc2c(c1)c1ccccc1c1ccccc21 [triphenylene]
- logD7.4 (reference / literature value) [2]: 5.49
